Values joined by “and” are separate entries in the source; they are usually repeats but may differ in a detail not shown here. Equal values may be shown once.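 Grown in 96-well plates, cells were treated for 48 hours with each compound at five concentrations. Insufficient inhibition: endpoint recorded as highest concentration tested. Abbreviation: GI50, concentration required for 50% inhibition of growth. TGI is the concentration that stops growth completely.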
Columns and labels:
Test in all cases: NCI anticancer screen, dose series, 48 h
[1] = test system: MCF7 breast
[2] = test system: 786-0 renal
[3] = test system: KM12 colon
[4] = test system: SF-268 CNS
[5] = test system: RPMI-8226 leukemia
[6] = test system: MDA-MB-435
[7] = test system: OVCAR-5 ovarian
[8] = test system: NCI-H460 lung
[9] = test system: OVCAR-8 ovarian
[10] = test system: OVCAR-3 ovarian

SMILES	TGI [1]	TGI [2]	TGI [3]	TGI [4]	TGI [5]	TGI [6]	TGI [7]	TGI [8]	TGI [9]	TGI [10]	GI50 [1]	GI50 [2]	GI50 [3]	GI50 [4]	GI50 [5]	GI50 [6]	GI50 [7]	GI50 [8]	GI50 [9]	GI50 [10]
CC(C)(C)CNCCO	> 100 µM	> 100 µM	> 100 µM	> 100 µM	> 100 µM	> 100 µM	> 100 µM	> 100 µM	> 100 µM	> 100 µM	–	–	–	–	–	–	–	–	–	–
Clc1ccc2c(NC3CCC(NC4CCCCC4)CC3)ccnc2c1 (stereo not given)	11 µM	24.5 µM	18.9 µM	25.6 µM	14.5 µM	5.51 µM	54.4 µM	18.6 µM	19.3 µM	23.2 µM	2.49 µM	11.9 µM	5.34 µM	10.5 µM	2.26 µM	2.11 µM	18.5 µM	5.27 µM	4.43 µM	5.34 µM
Clc1cccc(-c2cc(-c3ccc4c(c3)OCCO4)[nH]n2)c1	32.9 µM	64.9 µM	38.5 µM	57.1 µM	250 µM	26.1 µM	47.7 µM	31.8 µM	53.3 µM	31.3 µM	4.25 µM	23.1 µM	1.01 µM	12.4 µM	6.38 µM	0.578 µM	10.4 µM	1.01 µM	6.74 µM	1.95 µM
CCCCCOC(=O)c1c(C)[nH]c(/C=C2\N=C(c3ccc[nH]3)C=C2OC)c1C	1.14 µM	0.397 µM	1.54 µM	1.87 µM	0.24 µM	0.734 µM	1.21 µM	1.47 µM	1.18 µM	0.615 µM	0.0451 µM	0.0468 µM	0.0301 µM	0.0302 µM	0.028 µM	0.0348 µM	0.0191 µM	0.0309 µM	0.0373 µM	0.0423 µM
COc1ccc(CC(C)NCC(O)c2ccc(O)c(NC=O)c2)cc1 (stereo not given)	> 100 µM	> 100 µM	> 100 µM	> 100 µM	> 100 µM	> 100 µM	> 100 µM	> 100 µM	> 100 µM	> 100 µM	–	–	–	–	–	–	–	–	–	–
C=C(C)[C@@H]1CC[C@]2(C(=O)OC)CC[C@]3(C)[C@H](CC[C@@H]4[C@@](C)(CCc5nn[nH]n5)[C@H](C(=C)C)CC[C@]43C)[C@@H]12	70.5 µM	> 100 µM	25 µM	34.9 µM	29.8 µM	44.2 µM	35.9 µM	44 µM	> 100 µM	27 µM	17 µM	53.4 µM	10.7 µM	15.7 µM	4.07 µM	17.6 µM	19.4 µM	20.5 µM	28.6 µM	13.5 µM
CCCN1CCC(Oc2cc(Nc3nc(Nc4cccc(F)c4C(N)=O)c4cc[nH]c4n3)c(OC)cc2Cl)CC1	3.97 µM	7.52 µM	6.11 µM	8.32 µM	6.35 µM	5.32 µM	7.27 µM	4.79 µM	9.52 µM	7.99 µM	0.907 µM	3.65 µM	2.72 µM	3.79 µM	2.11 µM	1.35 µM	3.44 µM	1.45 µM	4.11 µM	4.18 µM
CCOc1ccc2nc3cc(N)ccc3c(N)c2c1	7.75 µM and 5.5 µM	10.8 µM and 13.1 µM	17.1 µM and 12.9 µM	1.79 µM and 1.68 µM	43.5 µM and 38.4 µM	24.3 µM and 22.4 µM	39 µM and 25.6 µM	12.6 µM and 15.7 µM	15.8 µM and 13.1 µM	7.25 µM and 10.5 µM	2.05 µM and 1.66 µM	2.12 µM and 2.37 µM	2.73 µM and 1.06 µM	0.385 µM and 0.324 µM	15.4 µM and 13.9 µM	10.6 µM and 7.74 µM	16.2 µM and 12.8 µM	3.13 µM and 3.9 µM	2.68 µM and 2.55 µM	2 µM and 1.91 µM
COc1cc2c(cc1OCCCCCOc1ccc(-c3nc4ccccc4s3)cc1)N=C[C@@H]1CCCN1C2=O	9.77 µM	3.63 µM	22.9 µM	31.6 µM	4.14 µM	69.2 µM	19.2 µM	7.66 µM	21.1 µM	> 44 µM	1.21 µM	1.2 µM	4.38 µM	5.62 µM	1.03 µM	10.5 µM	2.74 µM	1.27 µM	3.13 µM	1.54 µM
COCCn1c(Nc2ccc(C(=O)NO)cc2)nc2ccccc21	> 100 µM	23.5 µM	15.1 µM	17.5 µM	> 100 µM	11.4 µM	8.23 µM	30.4 µM	16 µM	14.1 µM	5.45 µM	10.5 µM	3.65 µM	4.9 µM	3.7 µM	2.89 µM	1.69 µM	4.06 µM	2.69 µM	3.24 µM
C=CCn1c(SCC(=O)Nc2ccc(C(=O)/C=C/c3cc(OC)c(OC)c(OC)c3)cc2)nnc1-c1cc(OC)c(OC)c(OC)c1	10.5 µM	4.01 µM	8.18 µM	64.6 µM	4.91 µM	10.7 µM	28.1 µM	14.5 µM	34.9 µM	8.46 µM	1.83 µM	1.85 µM	2.82 µM	3.99 µM	1.51 µM	2.72 µM	3.97 µM	3.76 µM	5.94 µM	2.98 µM
CCCCCCCCCCCC1=NC(C)(C)CN1C(C)C	8.68 µM	13 µM	3.96 µM	18.2 µM	3.66 µM	5.33 µM	16.1 µM	9.28 µM	16.3 µM	6.14 µM	2.81 µM	3.57 µM	1.94 µM	5.51 µM	1.44 µM	2 µM	4.14 µM	3.22 µM	4.35 µM	1.94 µM
